Laboratory results reported in patent publication US5596008A, “3,4-Diaryl substituted pyridines for the treatment of inflammation” (G. D. Searle & Co., priority 1995, dated 1997).
Where two headings read alike, the source gives them in different places.

Assays:
COX-2 murine = molecular target: T1, COX-2 murine (Mus musculus, UniProt Q05769); assay: COX-2 activity in vitro (recombinant enzyme, PGE2 ELISA); format: biochemical
T1 construct: human or murine COX-2 was cloned into a BamH1 site of the baculovirus transfer vector pVL1393; made in house; host or cells: SF9 insect cells (recombinant baculovirus, vector pVL1393)
T1 sequence (Q05769 18-604): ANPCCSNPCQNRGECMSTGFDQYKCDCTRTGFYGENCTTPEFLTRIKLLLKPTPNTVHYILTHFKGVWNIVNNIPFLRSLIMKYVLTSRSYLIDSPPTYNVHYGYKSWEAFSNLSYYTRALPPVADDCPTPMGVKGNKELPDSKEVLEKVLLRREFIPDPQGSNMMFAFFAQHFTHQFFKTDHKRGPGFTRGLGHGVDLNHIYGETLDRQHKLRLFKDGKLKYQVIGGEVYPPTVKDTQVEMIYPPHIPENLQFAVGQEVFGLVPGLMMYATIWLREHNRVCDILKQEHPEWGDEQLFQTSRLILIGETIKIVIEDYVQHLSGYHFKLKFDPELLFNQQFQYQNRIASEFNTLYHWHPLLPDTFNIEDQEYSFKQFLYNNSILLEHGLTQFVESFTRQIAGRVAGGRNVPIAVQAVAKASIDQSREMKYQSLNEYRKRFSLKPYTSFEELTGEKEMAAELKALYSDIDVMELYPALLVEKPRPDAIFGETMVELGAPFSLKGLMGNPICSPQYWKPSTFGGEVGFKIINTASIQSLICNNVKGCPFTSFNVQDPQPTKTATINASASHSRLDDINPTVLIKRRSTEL
Protocol: (§1) Evaluation of COX-1 and COX-2 activity in vitro
(§2) The COX-2 inhibition activity of the compounds of this invention illustrated in the Examples was determined by the following methods.
(§3) a. Preparation of recombinant COX baculoviruses
(§4) Recombinant COX-1 and COX-2 were prepared as described by Gierse et al, [J. Biochem., 305, 479-84 (1995)]. A 2.0 kb fragment containing the coding region of either human or murine COX-1 or human or murine COX-2 was cloned into a BamH1 site of the baculovirus transfer vector pVL1393 (Invitrogen) to generate the baculovirus transfer vectors for COX-1 and COX-2 in a manner similar to the method of D. R. O'Reilly et al (Baculovirus Expression Vectors: A Laboratory Manual (1992)). Recombinant baculoviruses were isolated by transfecting 4 μg of baculovirus transfer vector DNA into SF9 insect cells (2×10^8) along with 200 ng of linearized baculovirus plasmid DNA by the calcium phosphate method. See M. D. Summers and G. E. Smith, A Manual of Methods for Baculovirus Vectors and Insect Cell Culture Procedures, Texas Agric. Exp. Station Bull. 1555 (1987). Recombinant viruses were purified by three rounds of plaque purification and high titer (10^7 -10^8 pfu/ml) stocks of virus were prepared. For large scale production, SF9 insect cells were infected in 10 liter fermentors (0.5×10^6 /ml) with the recombinant baculovirus stock such that the multiplicity of infection was 0.1. After 72 hours the cells were centrifuged and the cell pellet homogenized in Tris/Sucrose (50 mM: 25%, pH 8.0) containing 1% 3-[(3-cholamidopropyl)dimethylammonio]-1-propanesulfonate (CHAPS). The homogenate was centrifuged at 10,000×G for 30 minutes, and the resultant supernatant was stored at -80° C. before being assayed for COX activity.
(§5) b. Assay for COX-1 and COX-2 activity:
(§6) COX activity was assayed as PGE2 formed/μg protein/time using an ELISA to detect the prostaglandin released. CHAPS-solubilized insect cell membranes containing the appropriate COX enzyme were incubated in a potassium phosphate buffer (50 mM, pH 8.0) containing epinephrine, phenol, and heme with the addition of arachidonic acid (10 μM). Compounds were pre-incubated with the enzyme for 10-20 minutes prior to the addition of arachidonic acid. Any reaction between the arachidonic acid and the enzyme was stopped after ten minutes at 37° C./room temperature by transferring 40 μl of reaction mix into 160 μl ELISA buffer and 25 μM indomethacin. The PGE2 formed was measured by standard ELISA technology (Cayman Chemical).

COX-1 murine = molecular target: T2, COX-1 murine (Mus musculus, UniProt P22437); assay: COX-1 activity in vitro (recombinant enzyme, PGE2 ELISA); format: biochemical; settings: arachidonic acid 10 μM, pH 8.0, pre-incubation 10-20 min, read-out: COX-1 murine ID50
T2 construct: A 2.0 kb fragment containing the coding region of either human or murine COX-1; made in house; host or cells: SF9 insect cells (recombinant baculovirus, vector pVL1393)
T2 sequence (P22437 27-602): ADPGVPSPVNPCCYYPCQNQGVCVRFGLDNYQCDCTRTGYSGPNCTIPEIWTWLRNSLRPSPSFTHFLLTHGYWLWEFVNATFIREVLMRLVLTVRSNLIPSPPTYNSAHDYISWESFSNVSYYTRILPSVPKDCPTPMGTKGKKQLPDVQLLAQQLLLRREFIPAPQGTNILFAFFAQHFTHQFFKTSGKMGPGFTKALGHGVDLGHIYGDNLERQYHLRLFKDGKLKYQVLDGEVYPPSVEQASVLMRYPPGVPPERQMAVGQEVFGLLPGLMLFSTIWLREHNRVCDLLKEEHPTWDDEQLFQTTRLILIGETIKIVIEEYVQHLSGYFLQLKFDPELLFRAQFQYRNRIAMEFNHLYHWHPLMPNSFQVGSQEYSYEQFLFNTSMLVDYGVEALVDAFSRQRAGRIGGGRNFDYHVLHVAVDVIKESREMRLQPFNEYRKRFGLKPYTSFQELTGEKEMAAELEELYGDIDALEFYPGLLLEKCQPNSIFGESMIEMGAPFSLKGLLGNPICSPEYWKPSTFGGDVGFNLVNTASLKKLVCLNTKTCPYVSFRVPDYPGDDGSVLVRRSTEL
Protocol: as §1, §2, §3, §4, §5, §6

[1] = COX-2 murine, arachidonic acid 10 μM, pH 8.0, pre-incubation 10-20 min, read-out: COX-2 murine ID50

IC50 (COX-2 murine; [1]) [µM] | IC50 (COX-1 murine) [µM] | Structure (SMILES) | IC50 (COX-2 murine) [µM]
> 30 | 0.3 | CCOc1cc(-c2ccc(S(C)(=O)=O)cc2)c(-c2ccc(F)cc2)c(C(F)(F)F)n1 [Example 2, 2-Ethoxy-5-(4-fluorophenyl)-4-[4-(methylsulfonyl)phenyl]-6-(trifluoromethyl)pyridine] | 
> 100 | 0.6 | CS(=O)(=O)c1ccc(-c2cc(Br)nc(C(F)(F)F)c2-c2ccc(F)cc2)cc1 [Example 4, 2-Bromo-5-(4-fluorophenyl)-4-[4-(methylsulfonyl)phenyl]-6-(trifluoromethyl)pyridine] | 
> 30 | 0.3 | COc1cc(-c2ccc(S(C)(=O)=O)cc2)c(-c2ccc(F)cc2)c(C(F)(F)F)n1 [Example 1, 5-(4-Fluorophenyl)-2-methoxy-4-[4-(methylsulfonyl)phenyl]-6-(trifluoromethyl)pyridine] | 

Structure (SMILES) | IC50 (COX-2 murine; [1]) [µM] | IC50 (COX-1 murine) [µM] | IC50 (COX-2 murine) [µM]
C#CCOc1cc(-c2ccc(S(C)(=O)=O)cc2)c(-c2ccc(F)cc2)c(C(F)(F)F)n1 [Example 3, 5-(4-Fluorophenyl)-4-[4-(methylsulfonyl)phenyl]-2-(2-propynyloxy)-6-(trifluoromethyl)pyridine] |  | 0.2 | > 30
